Data reported in US20230097253A1, “NOVEL QUINAZOLINE COMPOUND AS THERAPEUTIC AGENT FOR METABOLIC DISORDERS” (BIOWAY., INC, priority 2020, published 2023).

Tests used:
MRC5 cells = assay: Cytotoxicity in normal cells, CCK8 analysis; assay type: cell-based; conditions: 0.5-100 μM, 24 hours, CCK8, compared with the control group, FIG. 2
Description: For confirmation of cytotoxicity in normal cells, MRC (i.e., normal lung cells) were cultured in an incubator set at 37° C. with 95% humidity and 5% CO2.
Additionally, MRC5 cells were proliferated to a confluency of 70-80% on a plate using a growth medium (Minimum Essential Medium (MEM) supplemented with 10% fetal bovine serum (FBS), 100 U/ml of penicillin, and 100 μg/ml of streptomycin), and then used for the experiment.
In order to confirm the cytotoxicity of the compound according to an embodiment of the present invention, CCK8 analysis was performed for the prepared MRC5 cells.
First, after culturing MRC5 cells to 70-80% confluency in a 24-well plate, the test material was diluted in a culture medium except for the control group and treated with 0.5 μM, 2.5 μM, 10 μM, 20 μM, 40 μM, 80 μM, and 100 μM.
After 24 hours of treatment of the test material, CCK8 solution was dispensed 10 μL per well and incubated for 2 hours in a state where the light was blocked.
After 2 hours, 200 μL of the culture solution from each well was transferred to a 96 well plate and absorbance was measured at 450 nm.

[1] = tested on: steatosis-induced Huh7 cells; assay: Protein expression levels (western blot) for MOA confirmation in steatosis-induced liver cells; assay type: cell-based; conditions: 250 μM PA, 0.25-40 μM compound, 24 hours, FIG. 1
Description: An experiment to confirm the expression levels of proteins in steatosis-induced liver cells was conducted as follows.
To determine the protein expression level for MOA confirmation in steatosis-induced liver cells BW-3290 of the present invention, Huh7 cells were cultured in an incubator set at 37° C., 95% humidity, and 5% CO2.
Additionally, Huh7 cells were proliferated to a confluency of 80-90% on a plate using a growth medium (Dulbecco's modified Eagle's medium (DMEM) supplemented with 10% fetal bovine serum (FBS), 100 U/ml of penicillin, and 100 μg/ml of streptomycin), and then used for the experiment.
To induce steatosis in Huh-7 cells in each well except for control cells, the Huh-7 cells were treated with PA bound to 2% BSA at a concentration of 250 μM except for the control, and the control cells were pretreated with 2% BSA without FA.
The cells in each well were treated with the compounds of the present invention, R- or S-form of BW-3290, 0.25 μM, 0.5 μM, 1 μM, 5 μM, 10 μM, 20 μM, and 40 μM and then cultured for 24 hours. The control cells and PA treated cells were treated with DMSO. All media were aspirated and the cells were gently washed 3 times with cold PBS.
A cold lysis buffer containing 150 mM sodium chloride (NaCl), 5 mM ethylenediaminetetraacetic acid (EDTA), pH 8.0, […] 4-(2-hydroxyethyl)-1-piperazineethanesulfonic acid (HEPES), 1% nonylphenoxypolyethoxylethanol (NP-40), 2 μg/mL aprotinin, 1 μM pepstatin A, 10 μM leupeptin, 1 mM sodium fluoride (NaF), 0.2 mM sodium orthovanadate ([…]), and 1 μM phenylmethylsulfonyl fluoride (PMSF) was added thereto.
A whole cell lysate was collected and gently pipetted at least 10 times to ensure complete lysis. The sample was incubated on ice for 20 minutes and centrifuged 4° C. at 13,000 rpm, for 20 minutes. The supernatant was collected, 5× sodium dodecyl sulfate (SDS) sample buffer containing 50 mM Tris-CI (pH 6.8), 2% SDS, 0.1% bromopheol blue, and 10% glycerol was added to the sample, and boiled at 95° C. for 5 minutes.
The wells of 10% SDS-polyacrylamide gel electrophoresis (SDS-PAGE) were loaded with the same amount of a protein along with the molecular weight marker. The gel was electrophoresed at 100 V for 30 minutes in an electrophoresis chamber (Bio-Rad Laboratories, Hercules, Calif., USA).
A polyvinylidene fluoride (PVDF) membrane (MilliporeSigma, Burlington, Mass., USA) was activated with methanol (MeOH) for 1 minute and washed with a transfer buffer containing 25 mM Tris, 190 mM glycine, and 20% MeOH. The gel was placed in the transfer buffer for 10 minutes.
The transfer sandwich (in the order of paper, gel, membrane, and paper) was assembled and it was checked whether no air bubbles were trapped in the transfer sandwich. The transfer sandwich was placed in a transfer tank (Bio-Rad Laboratories) and ice cubes were placed in the transfer tank to prevent the transfer buffer from being heated. The protein was transferred from the gel to the PVDF membrane at 100 V for 30 minutes.
After washing the PVDF membrane with distilled water, the membrane was blocked for 1 hour at room temperature with a blocking buffer prepared by 5% skim milk (Difco Laboratories, Franklin Lakes, N.J., USA) in TBST containing 0.1% tween 20 (TBST, Sigma-Aldrich).
The membrane was incubated in a buffer in which the primary antibody was appropriately diluted. The membrane of fatty acid synthase (FAS), phosphor-AMP-activated protein kinase (p-AMPK), SIRT1, and SIRT3 was washed 3 times with TBST for 5 minutes each.
The membrane was incubated with a recommended dilution of horseradish peroxidase (HRP)-conjugated secondary mouse antibody in blocking buffer at room temperature for 1 hour.
The membrane was washed 5 times with TBST for 5 minutes each. Excess reagent was removed and the membrane was covered with a clear plastic wrap.
ECL prime western blotting detection reagent (GE Healthcare, Chicago, Ill., USA) was applied according to the manufacturer's recommendations. […]

Compound | cytotoxicity in normal cells (MRC5 cells) | SIRT1 protein expression level [1] | SIRT3 protein expression level [1] | level of FAS (fat synthesis protein) [1] | p-AMPK protein expression level [1]
CC(C)C(Nc1ncnc2nc[nH]c12)c1nc2cccc(Cl)c2c(=O)n1-c1ccccc1 (racemic) [RS-form, 2-(1-((7H-purin-6-yl)amino)-2-methylpropyl)-5-chloro-3-phenylquinazolin-4(3H)-one] | showed some toxicity |  |  |  | 
CC(C)[C@@H](Nc1ncnc2nc[nH]c12)c1nc2cccc(Cl)c2c(=O)n1-c1ccccc1 [R-form of BW-3290, (R)-2-(1-((7H-purin-6-yl)amino)-2-methylpropyl)-5-chloro-3-phenylquinazolin-4(3H)-one] | did not show toxicity | increased | increased | decreased in a concentration-dependent manner | increased
CC(C)[C@H](Nc1ncnc2nc[nH]c12)c1nc2cccc(Cl)c2c(=O)n1-c1ccccc1 [S-form, (S)-2-(1-((7H-purin-6-yl)amino)-2-methylpropyl)-5-chloro-3-phenylquinazolin-4(3H)-one] | showed some toxicity | increased | increased |  | increased
